Results taken from paper PMC5218480 (PLoS ONE, 2017).

System: MV-4-11 cells
Assay: Gene expression microarray analysis (Affymetrix PrimeView) and GSEA
Assay type: cell-based, human
Design: RFU PODN (11730768_x_at) / Fold change /veh PODN (11730768_x_at) / RFU LINC00158 (11744669_a_at) / Fold change /veh LINC00158 (11744669_a_at) / RFU DUSP10 (11751237_a_at) / Fold change /veh DUSP10 (11751237_a_at) / RFU ID3 (11757404_x_at) / Fold change /veh ID3 (11757404_x_at) / RFU PLEKHG5 (11737974_s_at) / Fold change /veh PLEKHG5 (11737974_s_at) / RFU LRRC4B (11730491_at) / Fold change /veh LRRC4B (11730491_at) / RFU GIMAP4 (11747438_a_at) / Fold change /veh GIMAP4 (11747438_a_at) / RFU KRT8 (11758183_x_at) / Fold change /veh KRT8 (11758183_x_at) / RFU CNN1 (11734310_a_at) / Fold change /veh CNN1 (11734310_a_at) / RFU VPS37D (11726825_at) / Fold change /veh VPS37D (11726825_at) / RFU C10orf10 (11716522_x_at) / Fold change /veh C10orf10 (11716522_x_at) / RFU KIR2DL2 /// KIR2DL4 /// KIR2DL5A /// KIR2DL5B /// KIR2DS1 /// KIR2DS2 /// KIR2DS3 /// KIR2DS4 /// KIR3DL3 /// KIR3DL3 /// KIR3DS1 (11738374_at) / Fold change /veh KIR2DL2 /// KIR2DL4 /// KIR2DL5A /// KIR2DL5B /// KIR2DS1 /// KIR2DS2 /// KIR2DS3 /// KIR2DS4 /// KIR3DL3 /// KIR3DL3 /// KIR3DS1 (11738374_at) / RFU C1QL1 (11718748_at) / Fold change /veh C1QL1 (11718748_at) / RFU TMPRSS4 (11747572_a_at) / Fold change /veh TMPRSS4 (11747572_a_at) / RFU HAMP (11756126_x_at) / Fold change /veh HAMP (11756126_x_at) / RFU RNFT2 (11725882_a_at) / Fold change /veh RNFT2 (11725882_a_at) / RFU NR4A2 (11747474_a_at) / Fold change /veh NR4A2 (11747474_a_at) / RFU ABCC12 (11746883_a_at) / Fold change /veh ABCC12 (11746883_a_at) / RFU TMEM136 (11760407_x_at) / Fold change /veh TMEM136 (11760407_x_at) / RFU CLDN22 /// WWC2 (11732394_at) / Fold change /veh CLDN22 /// WWC2 (11732394_at) / RFU HLA-DPB1 (11760878_x_at) / Fold change /veh HLA-DPB1 (11760878_x_at) / RFU SPINT1 (11716480_a_at) / Fold change /veh SPINT1 (11716480_a_at) / RFU GAP43 (11754022_s_at) / Fold change /veh GAP43 (11754022_s_at) / RFU A4GNT (11735810_at) / Fold change /veh A4GNT (11735810_at) / RFU PRB3 (11715151_x_at) / Fold change /veh PRB3 (11715151_x_at) / RFU TUBB4B (11761932_at) / Fold change /veh TUBB4B (11761932_at) / RFU CAPN14 (11732068_a_at) / Fold change /veh CAPN14 (11732068_a_at) / RFU TMCC2 (11721928_a_at) / Fold change /veh TMCC2 (11721928_a_at) / RFU IRGQ (11745062_a_at) / Fold change /veh IRGQ (11745062_a_at) / RFU FAM174B (11720279_a_at) / Fold change /veh FAM174B (11720279_a_at) / RFU TMPRSS4 (11748680_a_at) / Fold change /veh TMPRSS4 (11748680_a_at) / RFU FAM212B (11763350_a_at) / Fold change /veh FAM212B (11763350_a_at) / RFU PLEKHG5 (11743358_a_at) / Fold change /veh PLEKHG5 (11743358_a_at) / RFU ZSCAN30 (11745921_a_at) / Fold change /veh ZSCAN30 (11745921_a_at) / RFU CMKLR1 (11741424_a_at) / Fold change /veh CMKLR1 (11741424_a_at) / RFU LOC101060620 /// MAPK8IP1 (11723275_at) / Fold change /veh LOC101060620 /// MAPK8IP1 (11723275_at) / RFU SPTSSB (11747773_x_at) / Fold change /veh SPTSSB (11747773_x_at) / RFU PRSS12 (11739890_at) / Fold change /veh PRSS12 (11739890_at) / RFU BIN1 (11741810_x_at) / Fold change /veh BIN1 (11741810_x_at) / RFU WNT11 (11732464_a_at) / Fold change /veh WNT11 (11732464_a_at) / RFU C10orf10 (11716521_a_at) / Fold change /veh C10orf10 (11716521_a_at) / RFU C5orf56 (11738089_at) / Fold change /veh C5orf56 (11738089_at) / RFU CYB561 (11721691_x_at) / Fold change /veh CYB561 (11721691_x_at) / RFU ANKRD19P (11752326_a_at) / Fold change /veh ANKRD19P (11752326_a_at) / RFU OR2T12 /// OR2T33 /// OR2T8 (11738714_s_at) / Fold change /veh OR2T12 /// OR2T33 /// OR2T8 (11738714_s_at) / RFU VCAN (11748164_a_at) / Fold change /veh VCAN (11748164_a_at) / RFU JSRP1 (11732532_at) / Fold change /veh JSRP1 (11732532_at) / RFU KRTAP10-11 (11738290_x_at) / Fold change /veh KRTAP10-11 (11738290_x_at) / RFU MYO3A (11730013_a_at) / Fold change /veh MYO3A (11730013_a_at) / RFU EBF3 (11725865_a_at) / Fold change /veh EBF3 (11725865_a_at) / RFU CAMK2N1 (11719241_x_at) / Fold change /veh CAMK2N1 (11719241_x_at) / RFU C5orf56 (11738088_a_at) / Fold change /veh C5orf56 (11738088_a_at) / RFU OLFML3 (11715873_a_at) / Fold change /veh OLFML3 (11715873_a_at) / RFU LOC100653217 /// NTM (11731650_a_at) / Fold change /veh LOC100653217 /// NTM (11731650_a_at) / RFU MAPK11 (11762145_a_at) / Fold change /veh MAPK11 (11762145_a_at) / RFU FIZ1 (11724087_x_at) / Fold change /veh FIZ1 (11724087_x_at) / RFU OASL (11726364_x_at) / Fold change /veh OASL (11726364_x_at) / RFU SOX15 (11748057_x_at) / Fold change /veh SOX15 (11748057_x_at) / RFU CD79A (11719716_a_at) / Fold change /veh CD79A (11719716_a_at) / RFU HIST1H1D (11736915_at) / Fold change /veh HIST1H1D (11736915_at) / RFU CASKIN2 (11723855_a_at) / Fold change /veh CASKIN2 (11723855_a_at) / RFU LOC730098 (11760151_x_at) / Fold change /veh LOC730098 (11760151_x_at) / RFU OR4N2 (11742367_at) / Fold change /veh OR4N2 (11742367_at) / RFU PRRT2 (11749266_a_at) / Fold change /veh PRRT2 (11749266_a_at) / RFU SNX32 (11753110_a_at) / Fold change /veh SNX32 (11753110_a_at) / RFU CDHR5 (11726645_a_at) / Fold change /veh CDHR5 (11726645_a_at) / RFU RCAN1 (11760418_a_at) / Fold change /veh RCAN1 (11760418_a_at) / RFU FAM167A (11723789_a_at) / Fold change /veh FAM167A (11723789_a_at) / RFU FAM26E (11764081_at) / Fold change /veh FAM26E (11764081_at) / RFU ISYNA1 (11749810_s_at) / Fold change /veh ISYNA1 (11749810_s_at) / RFU ACY1 (11761880_at) / Fold change /veh ACY1 (11761880_at) / RFU 11764098_at / Fold change /veh 11764098_at / RFU SAMD14 (11745864_x_at) / Fold change /veh SAMD14 (11745864_x_at) / RFU NPB (11741838_a_at) / Fold change /veh NPB (11741838_a_at) / RFU TMPRSS6 (11731388_a_at) / Fold change /veh TMPRSS6 (11731388_a_at) / RFU KRTAP10-2 (11738614_at) / Fold change /veh KRTAP10-2 (11738614_at) / RFU ARHGAP8 /// PRR5-ARHGAP8 (11727945_x_at) / Fold change /veh ARHGAP8 /// PRR5-ARHGAP8 (11727945_x_at) / RFU KRTAP5-7 /// NADSYN1 (11734609_at) / Fold change /veh KRTAP5-7 /// NADSYN1 (11734609_at) / RFU RASL12 (11751679_a_at) / Fold change /veh RASL12 (11751679_a_at) / RFU CDKN2B (11736163_a_at) / Fold change /veh CDKN2B (11736163_a_at) / RFU PRF1 (11729649_at) / Fold change /veh PRF1 (11729649_at) / RFU, ZNF638 /// ZNF638-IT1 / Fold change vs veh, ZNF638 /// ZNF638-IT1 / RFU, PANK3 / Fold change vs veh, PANK3 / RFU, SH3YL1 / Fold change vs veh, SH3YL1 / RFU, ZEB2 / Fold change vs veh, ZEB2 / RFU, NRIP1 / Fold change vs veh, NRIP1 / RFU, PTTG1IP / Fold change vs veh, PTTG1IP / RFU, CAPN2 / Fold change vs veh, CAPN2 / RFU, MED14 / Fold change vs veh, MED14 / RFU, SNORA58 / Fold change vs veh, SNORA58 / RFU, C1orf63 / Fold change vs veh, C1orf63 / RFU, LRRFIP1 / Fold change vs veh, LRRFIP1 / RFU, NDUFAF7 / Fold change vs veh, NDUFAF7 / RFU, SLC12A2 / Fold change vs veh, SLC12A2 / RFU, IBTK / Fold change vs veh, IBTK / RFU, ESF1 / Fold change vs veh, ESF1 / Fold change vs veh, TMEM50B / RFU, TAOK1 / Fold change vs veh, TAOK1 / RFU, ACBD3 / Fold change vs veh, ACBD3 / RFU, TMA16 / Fold change vs veh, TMA16 / RFU, RWDD3 / Fold change vs veh, RWDD3 / RFU, BCAT1 / Fold change vs veh, BCAT1 / RFU, EDEM3 / Fold change vs veh, EDEM3 / RFU, TMEM33 / Fold change vs veh, TMEM33 / RFU, WDR75 / Fold change vs veh, WDR75 / RFU, AHCTF1 / Fold change vs veh, AHCTF1 / RFU, TFRC / Fold change vs veh, TFRC / RFU, ZDHHC17 / Fold change vs veh, ZDHHC17 / RFU, NOM1 / Fold change vs veh, NOM1 / RFU, ARL8B / Fold change vs veh, ARL8B / RFU, ZBTB11 / Fold change vs veh, ZBTB11 / RFU, TAMM41 / Fold change vs veh, TAMM41 / RFU, KIAA1704 /// LOC100996395 / Fold change vs veh, KIAA1704 /// LOC100996395 / RFU, ING1 / Fold change vs veh, ING1 / RFU, TRMT61B / Fold change vs veh, TRMT61B / RFU, FUBP3 / Fold change vs veh, FUBP3 / RFU, TP53 / Fold change vs veh, TP53 / RFU, TNKS2 / Fold change vs veh, TNKS2 / RFU, ZFP14 / Fold change vs veh, ZFP14 / RFU, ACTR2 / Fold change vs veh, ACTR2 / RFU, PPP3R1 / Fold change vs veh, PPP3R1 / RFU, PIK3R1 / Fold change vs veh, PIK3R1 / RFU, HNRNPA1 / Fold change vs veh, HNRNPA1 / RFU, RNF170 / Fold change vs veh, RNF170 / RFU, ZNF28 / Fold change vs veh, ZNF28 / RFU, RNGTT / Fold change vs veh, RNGTT / RFU, OGT / Fold change vs veh, OGT / RFU, BRD1 / Fold change vs veh, BRD1 / RFU, MARS / Fold change vs veh, MARS / RFU, ZNF655 / Fold change vs veh, ZNF655 / RFU, FAHD1 / Fold change vs veh, FAHD1 / RFU, BDP1 / Fold change vs veh, BDP1 / RFU, LRRCC1 / Fold change vs veh, LRRCC1 / RFU, ARID1A / Fold change vs veh, ARID1A / RFU, ZNF146 / Fold change vs veh, ZNF146 / RFU, ZNF330 / Fold change vs veh, ZNF330 / RFU, GPN3 / Fold change vs veh, GPN3 / RFU, C9orf123 / Fold change vs veh, C9orf123 / RFU, N4BP2L2 / Fold change vs veh, N4BP2L2 / RFU, ARFIP1 / Fold change vs veh, ARFIP1 / RFU, FAM179B / Fold change vs veh, FAM179B / RFU, BCL10 / Fold change vs veh, BCL10 / RFU, UHRF1BP1L / Fold change vs veh, UHRF1BP1L / RFU, BET1 / Fold change vs veh, BET1 / RFU, CNOT2 / Fold change vs veh, CNOT2 / RFU, ZNF268 / Fold change vs veh, ZNF268 / Fold change vs veh, ZNF507 / RFU, DGCR2 / Fold change vs veh, DGCR2 / RFU, WDSUB1 / Fold change vs veh, WDSUB1 / Fold change vs veh, HSP90B1 /// MIR3652 / RFU, ADSS / Fold change vs veh, ADSS / RFU, GK / Fold change vs veh, GK / RFU, ZNF148 / Fold change vs veh, ZNF148 / RFU, TAF9 / Fold change vs veh, TAF9 / RFU, SLC1A5 / Fold change vs veh, SLC1A5 / RFU, SLMO2 / Fold change vs veh, SLMO2 / RFU, ABCC4 / Fold change vs veh, ABCC4 / RFU, LOC101060439 /// RAP1B / Fold change vs veh, LOC101060439 /// RAP1B / RFU, RFX7 / Fold change vs veh, RFX7 / RFU, GTPBP10 / Fold change vs veh, GTPBP10 / RFU, CNEP1R1 / Fold change vs veh, CNEP1R1 / RFU, BIVM-ERCC5 /// ERCC5 / Fold change vs veh, BIVM-ERCC5 /// ERCC5 / RFU, ILF3 / Fold change vs veh, ILF3 / RFU 11762660_at / Fold change /veh 11762660_at / RFU VCAN (11757783_s_at) / Fold change /veh VCAN (11757783_s_at) / RFU DDX43 (11728927_at) / Fold change /veh DDX43 (11728927_at) / RFU KRT8 (11758188_x_at) / Fold change /veh KRT8 (11758188_x_at) / RFU NKD1 (11759106_at) / Fold change /veh NKD1 (11759106_at) / RFU SRD5A1 (11742802_a_at) / Fold change /veh SRD5A1 (11742802_a_at) / RFU TPSAB1 /// TPSB2 (11721975_s_at) / Fold change /veh TPSAB1 /// TPSB2 (11721975_s_at) / RFU GSTM3 (11746129_a_at) / Fold change /veh GSTM3 (11746129_a_at) / RFU IL23R (11737362_x_at) / Fold change /veh IL23R (11737362_x_at) / RFU TMEM51 (11727254_a_at) / Fold change /veh TMEM51 (11727254_a_at) / RFU PIWIL2 (11732686_x_at) / Fold change /veh PIWIL2 (11732686_x_at) / RFU ORM1 (11744905_x_at) / Fold change /veh ORM1 (11744905_x_at) / RFU CCDC152 (11743942_at) / Fold change /veh CCDC152 (11743942_at) / RFU ECM1 (11717891_a_at) / Fold change /veh ECM1 (11717891_a_at) / RFU IL23R (11748794_a_at) / Fold change /veh IL23R (11748794_a_at) / RFU TNFAIP8L3 (11732012_x_at) / Fold change /veh TNFAIP8L3 (11732012_x_at) / RFU MBOAT4 (11741988_at) / Fold change /veh MBOAT4 (11741988_at) / RFU 11764193_at / Fold change /veh 11764193_at / RFU TMEM53 (11763286_at) / Fold change /veh TMEM53 (11763286_at) / RFU MAGEB2 (11727129_at) / Fold change /veh MAGEB2 (11727129_at) / RFU TMEM200A (11744735_a_at) / Fold change /veh TMEM200A (11744735_a_at) / RFU CCDC152 (11751479_a_at) / Fold change /veh CCDC152 (11751479_a_at) / RFU FAM211A (11726209_a_at) / Fold change /veh FAM211A (11726209_a_at) / RFU RGS16 (11746705_a_at) / Fold change /veh RGS16 (11746705_a_at) / RFU VCAN (11755009_s_at) / Fold change /veh VCAN (11755009_s_at) / RFU RHOB (11743442_s_at) / Fold change /veh RHOB (11743442_s_at) / RFU RGS16 (11720943_a_at) / Fold change /veh RGS16 (11720943_a_at) / RFU RGS16 (11720944_at) / Fold change /veh RGS16 (11720944_at) / RFU, VPS4B / Fold change vs veh, VPS4B / RFU, CREB1 / Fold change vs veh, CREB1 / RFU, DNAJC13 / Fold change vs veh, DNAJC13 / RFU, GNAQ / Fold change vs veh, GNAQ / RFU, CDK5R1 / Fold change vs veh, CDK5R1 / RFU, ZRANB3 / Fold change vs veh, ZRANB3 / RFU, CUL4A / Fold change vs veh, CUL4A / RFU, CCNY / Fold change vs veh, CCNY / RFU, UFL1 / Fold change vs veh, UFL1 / RFU, COG3 / Fold change vs veh, COG3 / RFU, DIAPH2 / Fold change vs veh, DIAPH2 / RFU, SKA2 / Fold change vs veh, SKA2 / RFU, AFF3 / Fold change vs veh, AFF3 / RFU, LMF1 / Fold change vs veh, LMF1 / RFU, IPO11 / Fold change vs veh, IPO11 / RFU, DFFB / Fold change vs veh, DFFB / RFU, FOXP1 / Fold change vs veh, FOXP1 / RFU, CARD8 / Fold change vs veh, CARD8 / RFU, STRN3 / Fold change vs veh, STRN3 / RFU, ADK / Fold change vs veh, ADK / RFU, RASSF2 / Fold change vs veh, RASSF2 / RFU, WIPF1 / Fold change vs veh, WIPF1 / RFU, LARP1B / Fold change vs veh, LARP1B / RFU, RASA1 / Fold change vs veh, RASA1 / RFU, RB1 / Fold change vs veh, RB1 / RFU, PPFIA1 / Fold change vs veh, PPFIA1 / RFU, MAT2A / Fold change vs veh, MAT2A / RFU, CCT5 / Fold change vs veh, CCT5 / RFU, WDR92 / Fold change vs veh, WDR92 / RFU, CUX1 / Fold change vs veh, CUX1 / RFU, TTC7A / Fold change vs veh, TTC7A / RFU, TMEM135 / Fold change vs veh, TMEM135 / RFU, DEPTOR / Fold change vs veh, DEPTOR / RFU, CPM / Fold change vs veh, CPM / RFU, DNAJB6 / Fold change vs veh, DNAJB6 / RFU, CACNA2D3 / Fold change vs veh, CACNA2D3 / RFU, DTX4 / Fold change vs veh, DTX4 / RFU, TFCP2 / Fold change vs veh, TFCP2 / RFU, GMCL1 /// GMCL1P1 / Fold change vs veh, GMCL1 /// GMCL1P1 / RFU, AEBP2 / Fold change vs veh, AEBP2 / RFU, SNHG1 /// SNORD22 /// SNORD25 /// SNORD26 /// SNORD27 /// SNORD28 /// SNORD29 /// SNORD31 / Fold change vs veh, SNHG1 /// SNORD22 /// SNORD25 /// SNORD26 /// SNORD27 /// SNORD28 /// SNORD29 /// SNORD31 / Fold change (Aza/veh), C12orf56 (ProbeSet 11735607_a_at) / Fold change (ACY-1035/veh), C12orf56 (ProbeSet 11735607_a_at) / Fold change (Aza/veh), FGFR1OP (ProbeSet 11751329_s_at) / Fold change (ACY-1035/veh), FGFR1OP (ProbeSet 11751329_s_at) / Fold change (Aza/veh), VPS36 (ProbeSet 11739960_a_at) / Fold change (ACY-1035/veh), VPS36 (ProbeSet 11739960_a_at) / RFU SYPL1 (11715823_x_at) / Fold change /veh SYPL1 (11715823_x_at) / RFU IGFBP7 (11715501_s_at) / Fold change /veh IGFBP7 (11715501_s_at) / RFU REEP3 (11722064_at) / Fold change /veh REEP3 (11722064_at) / RFU IGLL1 (11728026_x_at) / Fold change /veh IGLL1 (11728026_x_at): dose or concentration left out as unconfirmed
Conditions: MV-4-11 cells, 48 hours

Nc1ncn([C@@H]2O[C@H](CO)[C@@H](O)[C@H]2O)c(=O)n1 [azacitidine]
Fold change /veh CDKN2B (11736163_a_at): 1.08
